Legend:
mice [1] = assay: Mouse toxicity experiment, Angelica archangelica water-extract mixed in food for 6 months; format: in vivo; conditions: daily consumption of cnidimoside A 3.35 mg/kg (calculated from extract content 0.15%)
Procedure: In a mouse experiment, we fed mice with about […] Angelica archangelica water-extract (mixed in food) daily for 6 months. Assuming the mice to be on average 23 g and cnidimoside A content in the extract to be 0.15%, this means that the daily consumption of cnidimoside A was 3.35 mg/kg.

mice [2] = conditions: 100 mg/kg daily, 30 days; cited from earlier work
[3] = tested on: β-adrenergic receptors in porcine detrusors; assay: Contraction of potassium-contracted pig detrusor muscle strips in organ baths, relaxation by adrenaline and desensitization
Source text: Bladders were obtained from freshly slaughtered pigs and placed in cold Krebs solution (composition, mM: sodium chloride 119, potassium chloride 4.6, sodium bicarbonate 15, calcium chloride 1.5, magnesium chloride 1.2, sodium dihydrogen phosphate 1.2, glucose was 1.98 g/L) which had been gassed by 5% CO2 and put on ice. Subsequently four adjacent strips were cut from the detrusor (typically 2 mm wide and 20 mm long). In each case, four strips were cut, one of which served as a control. The tissues were mounted in a 100-mL organ bath containing sodium Krebs solution, which was maintained at 37° C. and continuously gassed with 95% O2 and 5% CO2. The strips were placed under a tension of ≈1 g and allowed to equilibrate for 60 minutes, during which the bath was changed three times. The muscle contraction was recorded by a transducer. The muscle strips were then contracted by addition of potassium up to 50 mM and allowed to equilibrate.
About 40 minutes after addition of potassium, cnidimoside A was given to the organ baths. Cnidimoside A was isolated from Angelica archangelica leaf by boiling the dried leaf in water, extracting the water phase by ethyl acetate and subjecting the resulting organic phase to silica acid chromatography column. Cnidimoside A is eluted by 10% methanol in chloroform after washing the column with ethyl acetate and chloroform. The cnidimoside A rich fractions were recrystallized in methanol.
The muscle strip in the fourth organ bath (D in FIG. 1) received the same amount of DMSO but no cnidimoside A. About 20 and 30 minutes later (see FIG. 1, times 9 and 10) adrenaline was added to all organ baths, resulting in 0.4 (time 9) and 1.2 μM (time 10) final concentration, respectively.
About 75 minutes after addition of potassium, cnidimoside A dissolved in DMSO was added to three organ baths (E-G, time-10 in FIG. 2), the fourth receiving the same amount of DMSO (bottom graph (H) in FIG. 2). Fifteen minutes after the addition of cnidimoside A, adrenaline was added to all baths, to a final concentration of 2 μM (time 11 in FIG. 2). In the absence of cnidimoside A the muscle strip relaxed for about 15 minutes, but then started contracting again, reaching the same level of contraction about 50 minutes after the addition of adrenaline.

Water solubility = format: physicochemical

SMILES: C/C(=C/Cc1c(O)cc2oc(C)cc(=O)c2c1O)CO[C@@H]1O[C@H](CO)[C@@H](O)[C@H](O)[C@H]1O [cnidimoside A, 5,7-dihydroxy-2-methyl-6-[(Z)-3-methyl-4-[(2R,3R,4S,5S,6R)-3,4,5-trihydroxy-6-(hydroxymethyl)oxan-2-yl]oxybut-2-enyl]chromen-4-one]
- Toxic effect (mice [1]): No toxic effect
- Effect on the weight of body, liver, spleen or thymus (mice [2]): without affecting
- Desensitization of the relaxation response to adrenaline ([3]; 13 μM cnidimoside A (bath C), adrenaline 0.4 and 1.2 μM, Experiment I): occurred slowly
- Desensitization of the relaxation response to adrenaline ([3]; 38 μM cnidimoside A (bath B), adrenaline 0.4 and 1.2 μM, Experiment I): not observed at all
- Desensitization of the relaxation response to adrenaline ([3]; 112 μM cnidimoside A (bath A), adrenaline 0.4 and 1.2 μM, Experiment I): not observed at all
- Desensitization of the relaxation response to adrenaline ([3]; 200 μM cnidimoside A, adrenaline 2 μM, Experiment II): occurs much slower
- Repression of desensitization across doses ([3]; 13, 38 and 112 μM cnidimoside A vs DMSO control, Experiment I): repressed dose-dependently
- Water solubility (Water solubility): highly water soluble
